# Source: article PMC11451635, “A Broad Spectrum Lasso Peptide Antibiotic Targeting the Bacterial Ribosome” (Research Square, 2024)
# Entries after “also recorded” stand apart in the source; their conditions may differ.
# How the values were obtained:
# E. coli ribosome = test: Translocation inhibition assay; format: biochemical, Escherichia coli; conditions: 62.5 μM LAR or 250 μM negamycin, EF-G/GTP, primer extension
# bacteria = test: Antibiotic activity compared with LAR; format: cell-based; conditions: Supplementary Fig. 11
# Description: MICs were determined using broth microdilution method in cation-adjusted Mueller-Hinton Broth (MHBII, BD Difco) following standard procedures unless stated otherwise. Mycobacteria susceptibility was tested in Middlebrook 7H9 medium supplemented with 10% OADC Enrichment (oleic acid, bovine albumin, dextrose, and catalase) (BD Difco). The compounds (2 to 4 μl) were mixed with diluted cultures (5–7 × 10^5 cfu/mL) in MHB (196 to 198 μL) in 96-well round-bottom plates, and 2-fold serial dilutions were made. Plates were incubated at 37°C for 18–22 h, and OD600 readings were taken on Synergy Microplate Reader (Biotek). MIC was determined to be the lowest concentration of antibiotics with no visible growth. For Mycobacterial cultures, the plates were read after two to three days. Susceptibility was also assessed in MOPS minimal medium with 0.4% glucose (M2106 Teknova) and RPMI-1640 medium. Serum effects were tested in MHB with 10% or 50% fetal bovine serum (Invitrogen) or human serum (Heat Inactivated, from human male AB plasma; Sigma-Aldrich). For anaerobic conditions, E. coli was incubated in BD GasPak™ EZ pouch systems. To adjust the pH of the media, 1M NaOH or 1N HCl was used.
# [1] = system: T. thermophilus 70S ribosome; test: X-ray structure of ribosome complex; format: binding, Thermus thermophilus; conditions: 70S ribosome with mRNA and tRNAs, 250 μM antibiotic
# ClpP protease = conditions: cited from earlier work
# mycobacteria = conditions: cited from earlier work
compound,measurement,setting,value
"CN(CC(=O)O)NC(=O)C[C@H](N)C[C@@H](O)CN [negamycin, reference compound]",Inhibition of ribosome translocation,E. coli ribosome,interferes with the movement of mRNA/tRNA complex through the ribosome
lariocidin B [LAR-B],Antibiotic activity relative to LAR,bacteria,antibiotic activity comparable to that of the main LAR product; also recorded: closely matched that of LAR
same,Ribosome binding (X-ray structure),[1],Both LAR variants form very similar complexes with the ribosome
lassomycin,Target / activity,ClpP protease,targets microbial ClpP protease
same,Antimycobacterial activity,mycobacteria,exhibits antimycobacterial activity
triculamin,Antimycobacterial activity,mycobacteria,antimycobacterial
